According to patent US9187435B2, “Bridged Spiro[2.4]heptane ester derivatives” (Actelion Pharmaceuticals Ltd., priority 2010, dated 2015):
Structures can show the parent of a compound that is named as a salt.

Molecular target: T1, human ALX receptor (Homo sapiens, UniProt P25090)
T1 construct: expressed in transfected cells; host or cells: HEK293 (HEK293-hALXR-Gα16)
T1 sequence (P25090 1-351): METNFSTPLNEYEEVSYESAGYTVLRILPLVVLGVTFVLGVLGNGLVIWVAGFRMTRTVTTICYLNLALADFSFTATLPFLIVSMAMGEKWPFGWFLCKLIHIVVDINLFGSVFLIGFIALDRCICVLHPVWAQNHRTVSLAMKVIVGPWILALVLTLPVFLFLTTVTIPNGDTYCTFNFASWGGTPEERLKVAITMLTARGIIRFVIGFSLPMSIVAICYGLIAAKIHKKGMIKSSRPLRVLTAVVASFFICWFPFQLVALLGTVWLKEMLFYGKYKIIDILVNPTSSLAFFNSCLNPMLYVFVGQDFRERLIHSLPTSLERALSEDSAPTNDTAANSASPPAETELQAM
Assay: Intracellular calcium measurements (FLIPR) in HEK293-hALXR-Gα16 cells, agonistic activity
Type: cell-based
Settings: values normalized to WKYMVm 10 nM
Procedure: The ALX receptor and FPRL2 agonistic activities of the compounds of formula (I) are determined in accordance with the following experimental method.
Intracellular Calcium Measurements:
Cells expressing recombinant human ALX receptor and the G-protein Gα16 (HEK293-hALXR-Gα16) were grown to 80% confluency in Growing Medium (GM). Cells were detached from culture dishes with a cell dissociation buffer (Invitrogen, 13151-014), and collected by centrifugation at 1,000 rpm at rt for 5 min in Assay Buffer (AB) (equal parts of Hank's BSS (Gibco, 14065-049) and DMEM without Phenol Red (Gibco, 11880-028)). After 60 min incubation at 37° C. under 5% CO2 in AB supplemented with 1 μM Fluo-4 (AM) (Invitrogen, F14202), and 20 mM HEPES (Gibco, 15630-056), the cells were washed and resuspended in AB. They were then seeded onto 384-well FLIPR assay plates (Greiner, 781091) at 50,000 cells in 70 μl per well and sedimented by centrifugation at 1,000 rpm for 1 min. Stock solutions of test compounds were made up at a concentration of 10 mM in DMSO, and serially diluted in AB to concentrations required for activation dose response curves. WKYMVm (Phoenix Peptides) was used as a reference agonist. FLIPR384 or FLIPR Tetra instruments (Molecular Devices) were operated according to the manufacturer's standard instructions, adding 4 μl of test compound dissolved at 10 mM in DMSO and diluted prior to the experiment in assay buffer to obtain the desired final concentration. Changes in fluorescence were monitored before and after the addition of test compounds at lex=488 nm and lem=540 nm. Emission peak values above base level after compounds addition were exported after base line subtraction. Values were normalized to high-level control (WKYMVm compound, 10 nM final concentration) after subtraction of the base line value (AB addition).

With `O=C(OCC1CCNCC1)[C@H]1[C@H](C(=O)Nc2ccc(Br)cc2)[C@@H]2CC[C@H]1C21CC1` [Example 50, (1S,2R,3R,4R)-[(Piperidin-4-yl)methyl 2-((4-bromophenyl)carbamoyl)spiro[bicyclo[2.2.1]heptane-7,1′-cyclopropane]-3-carboxylate]hydrochloride] the EC50 was 10.8 nM.

`O=C(OCCC1CCCNC1)[C@H]1[C@H](C(=O)Nc2ccc(Br)nc2)[C@@H]2CC[C@H]1C21CC1` (stereo partly drawn) [Example 10, (1S,2R,3R,4R)-[2-(Piperidin-3-yl)ethyl 2-((6-bromopyridin-3-yl)carbamoyl)spiro[bicyclo[2.2.1]heptane-7,1′-cyclopropane]-3-carboxylate]hydrochloride] gave an EC50 of 3.1 nM.

`Cc1cc(CNC(=O)[C@H]2[C@H](C(=O)OC3CCCC3)[C@H]3CC[C@@H]2C32CC2)no1` [Example 29, (1S,2R,3R,4R)-[Cyclopentyl 2-(((5-methylisoxazol-3-yl)methyl)carbamoyl)spiro[bicyclo[2.2.1]heptane-7,1′-cyclopropane]-3-carboxylate]] gave an EC50 of 790 nM.

In the case of `Cc1cc(CNC(=O)[C@H]2[C@H](C(=O)OC3CCCNC3)[C@H]3CC[C@@H]2C32CC2)no1` (stereo partly drawn) [Example 16, (1S,2R,3R,4R)-[Piperidin-3-yl 2-(((5-methylisoxazol-3-yl)methyl)carbamoyl)spiro[bicyclo[2.2.1]heptane-7,1′-cyclopropane]-3-carboxylate]hydrochloride], the EC50 is reported as 53.7 nM.

Work on `COCCOC(=O)[C@H]1[C@H](C(=O)Nc2ccc(Br)nc2)[C@@H]2CC[C@H]1C21CC1` [Example 7, (1S,2R,3R,4R)-[2-Methoxyethyl 2-((6-bromopyridin-3-yl)carbamoyl)spiro[bicyclo[2.2.1]heptane-7,1′-cyclopropane]-3-carboxylate]] yielded an EC50 of 303 nM.

Molecule `Cc1cc(CNC(=O)[C@H]2[C@H](C(=O)OCCC3(F)CCNCC3)[C@H]3CC[C@@H]2C32CC2)no1` [Example 58, (1S,2R,3R,4R)-[2-(4-Fluoro-piperidin-4-yl)ethyl 2-(((5-methylisoxazol-3-yl)methyl)carbamoyl)spiro[bicyclo[2.2.1]heptane-7,1′-cyclopropane]-3-carboxylate]] has an EC50 of 36.7 nM.

`Cc1cc(CNC(=O)[C@H]2[C@H](C(=O)OCC3CCCCN3C)[C@H]3CC[C@@H]2C32CC2)no1` (stereo partly drawn) [Example 26, (1S,2R,3R,4R)-[1-Methyl-piperidin-2-ylmethyl 2-(((5-methylisoxazol-3-yl)methyl)carbamoyl)spiro[bicyclo[2.2.1]heptane-7,1′-cyclopropane]-3-carboxylate]] gave an EC50 of 406 nM.

`O=C(OCC(O)CO)[C@H]1[C@H](C(=O)Nc2ccc(Br)nc2)[C@@H]2CC[C@H]1C21CC1` (relative stereo) [Example 5, (1S,2R,3R,4R)-[(S*)-2,3-Dihydroxypropyl 2-((6-bromopyridin-3-yl)carbamoyl)spiro[bicyclo[2.2.1]heptane-7,1′-cyclopropane]-3-carboxylate]] was tested, and the EC50 was 242 nM.

`Cc1cc(CNC(=O)[C@H]2[C@H](C(=O)OCCOCCN3CCCC3)[C@H]3CC[C@@H]2C32CC2)no1` [Example 33, (1S,2R,3R,4R)-[2-(2-(Pyrrolidin-1-yl)ethoxy)ethyl 2-(((5-methylisoxazol-3-yl)methyl)carbamoyl)spiro[bicyclo[2.2.1]heptane-7,1′-cyclopropane]-3-carboxylate]] was tested, and the EC50 was 30.7 nM.

Molecule `Cc1cc(CNC(=O)[C@H]2[C@H](C(=O)OCC3CCNCC3)[C@H]3CC[C@@H]2C32CC2)no1` [Example 3, (1S,2R,3R,4R)-[Piperidin-4-ylmethyl 2-(((5-methylisoxazol-3-yl)methyl)carbamoyl)spiro[bicyclo[2.2.1]heptane-7,1′-cyclopropane]-3-carboxylate]hydrochloride] has an EC50 of 22.7 nM.

`CCCOC(=O)[C@H]1[C@H](C(=O)NCc2cc(C)on2)[C@@H]2CC[C@H]1C21CC1` [Example 30, (1S,2R,3R,4R)-[Propyl 2-(((5-methylisoxazol-3-yl)methyl)carbamoyl)spiro[bicyclo[2.2.1]heptane-7,1′-cyclopropane]-3-carboxylate]] gave an EC50 of 808 nM.

`O=C(O[C@H]1CCNC[C@H]1F)[C@H]1[C@H](C(=O)Nc2ccc(Br)nc2)[C@@H]2CC[C@H]1C21CC1` (relative stereo) [Example 74, (1S,2R,3R,4R)-[cis-3-Fluoro-piperidin-4-yl 2-((6-bromopyridin-3-yl)carbamoyl)spiro[bicyclo[2.2.1]heptane-7,1′-cyclopropane]-3-carboxylate]] gave an EC50 of 280 nM.

Molecule `CN1CCC(OC(=O)[C@H]2[C@H](C(=O)Nc3ccc(Br)nc3)[C@@H]3CC[C@H]2C32CC2)CC1` [Example 6, (1S,2R,3R,4R)-[1-Methylpiperidin-4-yl 2-((6-bromopyridin-3-yl)carbamoyl)spiro[bicyclo[2.2.1]heptane-7,1′-cyclopropane]-3-carboxylate]] has an EC50 of 257 nM.

Work on `CN1CCC(OC(=O)[C@H]2[C@H](C(=O)Nc3ccc(Br)nc3)[C@@H]3CC[C@H]2C32CC2)C1` (stereo partly drawn) [Example 14, (1S,2R,3R,4R)-[1-Methylpyrrolidin-3-yl 2-((6-bromopyridin-3-yl)carbamoyl)spiro[bicyclo[2.2.1]heptane-7,1′-cyclopropane]-3-carboxylate]] yielded an EC50 of 25.8 nM.

In the case of `O=C(OC[C@H]1CCNC[C@H]1F)[C@H]1[C@H](C(=O)Nc2ccc(Br)nc2)[C@@H]2CC[C@H]1C21CC1` (relative stereo) [Example 64, (1S,2R,3R,4R)-[(cis-3-Fluoro-piperidin-4-yl)methyl 2-((6-bromopyridin-3-yl)carbamoyl)spiro[bicyclo[2.2.1]heptane-7,1′-cyclopropane]-3-carboxylate]], the EC50 is reported as 106 nM.

`O=C(OCCOCCN1CCCC1)[C@H]1[C@H](C(=O)NCc2ccc(Br)cc2F)[C@@H]2CC[C@H]1C21CC1` [Example 32, (1S,2R,3R,4R)-[2-(2-(Pyrrolidin-1-yl)ethoxy)ethyl 2-((4-bromo-2-fluorobenzyl)carbamoyl)spiro[bicyclo[2.2.1]heptane-7,1′-cyclopropane]-3-carboxylate]] gave an EC50 of 226 nM.

For `Cc1cc(CNC(=O)[C@H]2[C@H](C(=O)OCC[C@@H]3CCCCN3)[C@H]3CC[C@@H]2C32CC2)no1` [Example 20, (1S,2R,3R,4R)-[(S)-2-(Piperidin-2-yl)ethyl 2-(((5-methylisoxazol-3-yl)methyl)carbamoyl)spiro[bicyclo[2.2.1]heptane-7,1′-cyclopropane]-3-carboxylate]hydrochloride], the EC50 was 118 nM.

Work on `Cc1cc(CNC(=O)[C@H]2[C@H](C(=O)OC3CCNCC3(F)F)[C@H]3CC[C@@H]2C32CC2)on1` (stereo partly drawn) [Example 61, (1S,2R,3R,4R)-[(3,3-Difluoro-piperidin-4-yl) 2-(((3-methylisoxazol-5-yl)methyl)carbamoyl)spiro[bicyclo[2.2.1]heptane-7,1′-cyclopropane]-3-carboxylate]] yielded an EC50 of 50.1 nM.

With `O=C(O[C@@H]1CCNC1)[C@H]1[C@H](C(=O)Nc2ccc(Br)nc2)[C@@H]2CC[C@H]1C21CC1` [Example 13, (1S,2R,3R,4R)-[(R)-Pyrrolidin-3-yl 2-((6-bromopyridin-3-yl)carbamoyl)spiro[bicyclo[2.2.1]heptane-7,1′-cyclopropane]-3-carboxylate]hydrochloride] the EC50 was 17.9 nM.

`Cc1cc(CNC(=O)[C@H]2[C@H](C(=O)OCCC3CCNCC3)[C@H]3CC[C@@H]2C32CC2)no1` [Example 47, (1S,2R,3R,4R)-[2-(Piperidin-4-yl)ethyl 2-(((5-methylisoxazol-3-yl)methyl)carbamoyl)spiro[bicyclo[2.2.1]heptane-7,1′-cyclopropane]-3-carboxylate]] gave an EC50 of 9.7 nM.

Work on `NC(=O)CCOC(=O)[C@H]1[C@H](C(=O)Nc2ccc(Br)nc2)[C@@H]2CC[C@H]1C21CC1` [Example 68, (1S,2R,3R,4R)-[(3-Amino-3-oxopropyl) 2-((6-bromopyridin-3-yl)carbamoyl)spiro[bicyclo[2.2.1]heptane-7,1′-cyclopropane]-3-carboxylate]] yielded an EC50 of 135 nM.

`O=C(OC1CCNCC1)[C@H]1[C@H](C(=O)NCc2ccc(Br)cc2F)[C@@H]2CC[C@H]1C21CC1` [Example 60, (1S,2R,3R,4R)-[Piperidin-4-yl 2-((4-bromo-2-fluorobenzyl)carbamoyl)spiro[bicyclo[2.2.1]heptane-7,1′-cyclopropane]-3-carboxylate]] showed an EC50 of 43.4 nM.
